Reference: patent US9096550B2, “Bryostatin analogues and methods of making and using thereof” (UNIVERSITY OF UTAH RESEARCH FOUNDATION, priority 2008, dated 2015)

How the values were obtained:
LNCaP cells = test: Proliferation of LNCaP cells (Incucyte confluency); type: cell-based, human; details: 300 nM PMA combined with 1000 nM compound, 80 hrs
Protocol: FIGS. 12A-D show the effect of different compounds on the proliferation and apoptosis of LNCaP cells. […] Time-elapsed images were taken with an Incucyte imaging system every hour for 4 days. The proliferation of LNCaP cells is presented as increase in confluency (read by the instrument) at 80 hrs. Data represent the means+SEM of three independent experiments. […] Apoptosis was measured 2 days after treatment by flow cytometry using 7-AAD and Yo-Pro-1 as described in Materials and Methods. Data represent the means+SEM of three independent experiments.
FIGS. 13A and 13B show the proliferation and morphology of LNCaP cells detected by Incucyte. LNCaP cells were treated with DMSO as control, 300 nM PMA, 1000 nM bryostatin 1 or the bryologue MERLE 21, or with 300 nM PMA in combination with 1000 nM bryostatin 1 or the bryologue MERLE 21. Time-elapsed images were taken by the Incucyte imaging system every hour. […] The arrow indicates the time of treatment. Data are representative of three independent experiments.
The extent of confluency of LNCaP cells (from ATCC, Manassas, Va.) and the morphological changes after treatment were followed in real time using Incucyte (Essen Instruments, Ann Arbor, Mich.). Images of LNCaP cells plated into 24 well plates were taken every 1 hour by the instrument before and after treatment for a total of 4 days. The confluency of the cells was calculated by the instrument's program. The proliferation of LNCaP cells was expressed as the difference in cell confluency before and after treatment.

C3H10T1/2 cells = test: Release of arachidonic acid from C3H10T1/2 cells; type: cell-based, mouse; details: % of the maximal PMA-induced response relative to the DMSO control, 2 hour treatment
Protocol: FIGS. 15A and 15B show the release of arachidonic acid from treated C3H10T1/2 cells. The cells were labeled with [^3H]arachidonic acid for 18 hrs, treated with DMSO as control, different concentrations of PMA (0.1-100 nM), bryostatin 1 (1-1000 nM), the bryologues (1-1000 nM) (A) or 100 nM PMA in combination with 1000 nM bryostatin 1, or the bryologues MERLE 21, 22, 23. The radioactive arachidonic acid released into the medium was quantitated after 2 hour treatment. The response of 100 nM PMA was taken as 100%. Data represent the means+SEM of four (FIG. 15A) or three (FIG. 15B) independent experiments.
C3H10T1/2 cells (ATCC, Manassas, Va.) were plated in 24 well plates and treated with different drugs or with DMSO as control. The release of arachidonic acid after 2 hour treatment was measured as described previously (Dell′Aquila M L, Herald C L, Kamano Y, Pettit G R, Blumberg P M. Differential effects of byrostatins and phorbol esters on arachidonic acid metabolite release and epidermal growth factor binding in C3H10T1/2 cells. Cancer Res 1988; 48: 3702-3708).

U937 cells [1] = test: Attachment of U937 cells; type: cell-based, human
Protocol: (§1) U937 cells (Sundstrom, C.; Nilsson, K.: Establishment and characterization of a human histiocytic lymphoma cell line (U-937). Int. J. Cancer 1976, 17: 565-577.), purchased from ATCC (Manassas, Va.) and cultured in RPMI-1640 medium supplemented with 10% FBS (ATCC, Manassas, Va.), were plated in 35 mm dishes at a density of 2×10^5 living cells/ml and treated with different concentrations of the drugs or DMSO. After 72 hours, the number of cells in the supernatant (non-attached cells) and the number of attached cells (after trypsinization) were counted using a Beckman particle counter (Beckman Coulter Inc., Fullerton, Calif.). The number of attached cells is expressed as percent of total cells (FIGS. 8-10).
(§2) U937 cells were treated with PMA (0.1-100 nM), bryostatin 1 (1-1000 nM), the indicated compound (1-1000 nM), 10 nM PMA with different concentrations of bryostatin 1 (1-1000 nM) or 10 nM PMA with different concentrations of indicated compound (1-1000 nM) for 72 hours. The number of attached cells and total cells were counted and the attached cells were graphed as percent of total cells. The bars and error bars represent the average and the standard error of the mean of five independent experiment (FIGS. 8-10).
(§3) U937 cells (Sundstrom and Nilsson, 1976), purchased from ATCC (Manassas, Va.) and cultured in RPMI-1640 medium supplemented with 10% FBS (ATCC, Manassas, Va.), were plated in 35 mm dishes at a density of 1×10^5 living cells/ml and treated with different concentrations of the drugs or DMSO. After 72 hours, the number of cells in the supernatant (non-attached cells) and the number of attached cells (after trypsinization) were counted using a particle counter. The number of attached cells is expressed as percent of total cells.
(§4) U937 cells were treated with PMA (0.01-100 nM), bryostatin1 (0.1-1000 nM), analogue 12 (MERLE 28) (0.1-1000 nM), 10 nM PMA with different concentrations of bryostatin 1 (0.1-1000 nM) or 10 nM PMA with different concentrations of analogue 12 (0.1-1000 nM). The number of attached cells and total cells were counted and the attached cells were graphed as percent of total cells. The bars and error bars represent the average and the standard error of the mean of at least three independent experiments.
as §3, with “U-937” for “U937”
as §2, with “U-937” for “U937”, “at least three” for “five”, “experiments.” for “experiment (FIGS. 8-10).”

U937 cells [2] = test: Inhibition of U937 cell proliferation; type: cell-based, human
Protocol: as §1
as §2, with “nM).” for “nM) for 72 hours.”, “attached and non-attached” for “attached”, “was” for “and total cells were”, “number” for “attached cells were graphed as percent”, “cells was expressed as % of control.” for “cells.”, “experiments” for “experiment”
as §3
as §4, with “12” for “12 (MERLE 28)”, “The numbers” for “The number”, “attached” for “attached cells”, “and non-attached” for “and total”, “the number” for “the attached cells were graphed as percent”, “total cells was expressed as % of control.” for “total cells.”
as §3, with “U-937” for “U937”
U-937 cells were treated with PMA (0.1-100 nM), bryostatin 1 (1-1000 nM), the indicated compound (1-1000 nM), 10 nM PMA with different concentrations of bryostatin 1 (1-1000 nM) or 10 nM PMA with different concentrations of indicated compound (1-1000 nM). The number of attached and non-attached cells was counted and the number of total cells was expressed as % of control. The bars and error bars represent the average and the standard error of the mean of at least three independent experiments.

[3] = 10 nM PMA with different concentrations of compound

Structure (SMILES)	block of the PMA inhibition of LNCaP cell growth (LNCaP cells)	arachidonic acid release, average level of response (C3H10T1/2 cells) [%]	block of PMA-induced attachment of U937 cells (U937 cells [1]; [3])	attachment of U937 cells (U937 cells [1]; compound alone, 72 hours)	block of PMA inhibition of U937 cell proliferation (U937 cells [2]; [3])	inhibition of U937 cell proliferation (U937 cells [2]; compound alone)
C=C1C[C@@H]2C[C@@H]3CC(=C)C[C@H](/C=C/C(C)(C)[C@]4(O)O[C@@H](C/C(=C\C(=O)OC)[C@@H]4OC(=O)c4ccccc4)C[C@H]([C@@H](C)O)OC(=O)C[C@H](O)C[C@H](C1)O2)O3 [MERLE 21]	did not appear to quite reach the level observed for bryostatin 1	73				
C=C1C[C@@H]2C[C@@H]3CC(=C)C[C@H](/C=C/C(C)(C)[C@]4(O)O[C@@H](C/C(=C\C(=O)OC)[C@@H]4OC(=O)CCCCCCC)C[C@H]([C@@H](C)O)OC(=O)C[C@H](O)C[C@H](C1)O2)O3 [MERLE 22]	did not appear to quite reach the level observed for bryostatin 1	69				
C=C1C[C@@H]2C[C@@H]3CC(=C)C[C@H](/C=C/C(C)(C)[C@]4(O)O[C@@H](C/C(=C\C(=O)OC)[C@@H]4OC(=O)/C=C/C=C/CCC)C[C@H]([C@@H](C)O)OC(=O)C[C@H](O)C[C@H](C1)O2)O3 [MERLE 23]	did not appear to quite reach the level observed for bryostatin 1	64				
C=C1C[C@H]2CC3(O)O[C@H](C[C@@H](O)CC(=O)O[C@@H]([C@@H](C)O)C[C@@H]4C/C(=C\C(=O)OC)[C@H](OC(=O)/C=C/C=C/CCC)[C@@](O)(O4)C(C)(C)/C=C/[C@@H](C1)O2)C[C@H](OC(C)=O)C3(C)C [MERLE 28]			functional antagonist of PMA and blocks the effect of the phorbol ester	approaches that of bryostatin 1 itself	Both of these aspects of bryostatin 1 induced biological response are captured	very similar to those for bryostatin 1
